Laboratory results from US20200102264A1, “MARMELIN ANALOGS AND METHODS OF USE IN CANCER TREATMENT” (THE UNIVERSITY OF KANSAS, priority 2014, published 2020).

Columns and labels:
[1] = system: HCT116 colon cancer cells; experiment: hexoseaminidase cell proliferation assay, HCT116; type: cell-based
Excerpt: Using hexoseaminidase assay, we determined the effect of the compounds on cell proliferation. […]
Using hexoseaminidase assay, we determined the effect of the compounds on cell proliferation. […] […] […] Overall, the analogs can be used as chemotherapeutic agents against colon and pancreatic cancer.

[2] = system: KU7 bladder cancer cells; experiment: hexoseaminidase cell proliferation assay, KU7; type: cell-based
Protocol: (§1) Using hexoseaminidase assay, we determined the effect of the compounds on cell proliferation. […] The IC50 value at 48 hours is below 10 μM in all the cancer cell lines.

[3] = system: 253JBV bladder cancer cells; experiment: hexoseaminidase cell proliferation assay, 253JBV; type: cell-based
Protocol: as §1

[4] = system: HCT116 cells; experiment: cell cycle analysis, HCT116; type: cell-based; settings: HCT116, Table 3
[5] = system: SW480 cells; experiment: cell cycle analysis, SW480; type: cell-based; settings: SW480, Table 3
Protocol: The analogs were tested to determine the ability induce death of colon cancer cells.

[6] = system: SW480 cells; experiment: colony formation, SW480; type: cell-based
[7] = system: cancer stem cells; experiment: colonosphere formation; type: cell-based
Protocol: It was also determined the analogs inhibit colonosphere formation from cancer stem cells. […] The columns are 0, 10, 25, and 50 micromolar concentrations of the compounds labeled by rows.
The effect of the compounds on colonosphere formation was determined. […] Overall, the analogs have shown they can be used as chemotherapeutic agents against colon, pancreatic and bladder cancer.

[8] = system: caspase 3, caspase 8, caspase 9, Bcl2, BclXL, cytochrome c; experiment: western blot analysis, apoptosis proteins; type: cell-based; settings: HCT116 and SW480 cells, 48 h
Protocol: (§2) The pathways for apoptosis were studied to determine whether the analogs were capable of inhibiting certain aspects of the pathways. […] HCT116 and SW480 cells treated with MRL, THB, THBCD, DHB, DHBCD and CD for 48 h and performed for western blot analysis. […] It is shown that THBCD also activates caspase 8 and caspase 9. Furthermore, THB and THBCD inhibit anti-apoptotic protein Bcl2 and BclXL levels. […] HCT116 and SW480 cells treated with MRL, THB, THBCD, DHB, DHBCD and CD for 48 h and performed for western blot analysis. Furthermore, THB and THBCD inhibit phosphorylation of Akt (FIG. 3).

[9] = system: Cyclin D1, c-Myc, Akt phosphorylation, COX-2, VEGF; experiment: western blot analysis, cancer promoting genes; type: cell-based; settings: HCT116 and SW480 cells, 48 h
Protocol: as §2

[10] = system: DCLK1, LGR5 and CD44; experiment: stem cell marker protein expression; type: cell-based; settings: HCT116 and SW480 cells
Protocol: The analogs were also tested with doublecortin and CaM kinase-like-1 (DCLK1), a microtubule-associated kinase expressed in postmitotic neurons and is an intestinal stem cell marker that is expressed in colon adenocarcinoma. DCLK1 distinguishes between tumor and normal stem cells in the intestine and could be a therapeutic target for colon cancer.

[11] = system: Notch-1, Jagged-1, Hes-1; experiment: Notch signaling-related proteins; type: cell-based; settings: two colon cancer cells
Excerpt: Notch signaling also plays a fundamental role in the differentiation and maintenance of stem cells. […] We next determined the effect of THB or THBCD on Notch signaling-related proteins in the two colon cancer cells.

[12] = system: Presenilin, Nicastrin, APH1 and PEN2; experiment: γ-secretase complex protein expression; type: cell-based
Excerpt: The γ-secretase enzyme complex is made up of four proteins presenilin, nicastrin, APH-1 (anterior pharynx-defective 1), and PEN-2 (presenilin enhancer 2), all of which are essential for activity. Cleavage by the γ-secretase complex releases the Notch intracellular domain (NICD), which in turn translocates into the nucleus of the cells, interacts with the C promoter-binding factor-1 (CBF1) transcriptional cofactor and transactivates target genes, such as those in the hairy and enhancer of split (Hes) and Hes related with YRPW motif (Hey) family proteins. We determined whether the γ-secretase complex comprising of Presenilin, Nicastrin, APH1 and PEN2 is affected.

[13] = system: Mst1/2, Lats1/2, YAP1, TEAD1, 2, and 4; experiment: Hippo signaling-related proteins; type: cell-based; settings: HCT116 and SW480 cell lines
Excerpt: The Hippo pathway regulates stem cell proliferation, self-renewal, and differentiation. YAP1 is highly expressed gene in stem cells. […] We next determined the effect of THB or THBCD on Hippo signaling-related proteins in the two colon cancer cells.

[14] = system: DCLK1+ HCT116 cells; experiment: flow cytometric analysis of DCLK1+ cells; type: cell-based; settings: flow cytometry
[15] = biological target: T1, DCLK1 (Homo sapiens, UniProt O15075); experiment: in vitro kinase assay using recombinant DCLK1; type: biochemical; settings: recombinant DCLK1, dose dependent
T1 construct: we performed an in vitro kinase assay using recombinant DCLK1
T1 sequence (O15075 whole entry): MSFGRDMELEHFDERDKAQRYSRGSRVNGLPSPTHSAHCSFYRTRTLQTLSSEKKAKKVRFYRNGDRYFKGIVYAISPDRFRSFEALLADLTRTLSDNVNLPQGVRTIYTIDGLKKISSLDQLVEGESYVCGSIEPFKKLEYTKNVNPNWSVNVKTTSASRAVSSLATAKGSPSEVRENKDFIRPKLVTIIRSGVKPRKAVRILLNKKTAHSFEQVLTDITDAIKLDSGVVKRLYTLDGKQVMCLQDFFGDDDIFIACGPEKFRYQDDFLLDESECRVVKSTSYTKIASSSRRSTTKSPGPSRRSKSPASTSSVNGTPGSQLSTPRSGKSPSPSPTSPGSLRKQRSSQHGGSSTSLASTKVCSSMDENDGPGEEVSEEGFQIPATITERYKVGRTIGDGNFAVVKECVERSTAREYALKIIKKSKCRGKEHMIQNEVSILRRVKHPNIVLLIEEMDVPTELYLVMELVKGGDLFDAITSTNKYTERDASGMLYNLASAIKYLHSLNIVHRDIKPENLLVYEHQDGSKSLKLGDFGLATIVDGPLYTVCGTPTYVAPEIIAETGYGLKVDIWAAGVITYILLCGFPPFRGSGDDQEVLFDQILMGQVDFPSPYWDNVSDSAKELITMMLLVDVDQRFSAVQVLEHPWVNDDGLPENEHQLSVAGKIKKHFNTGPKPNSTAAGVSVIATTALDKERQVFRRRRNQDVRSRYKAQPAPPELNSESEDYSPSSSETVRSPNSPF
Excerpt: DCLK1 encodes a calmodulin-like kinase domain, and has homology to calmodulin kinases CAMKII and CAMKIV. We performed homology modeling and determined that THB can interact with the kinase domain with binding energy of −5.94. Furthermore we performed an in vitro kinase assay using recombinant DCLK1. […] Furthermore, THB and THBCD inhibit cancer stem cell marker DCLK1 expression in the xenograft tumors in both immunohistochemistry and western blot analysis (data not shown).

[16] = biological target: CAMKIV (Homo sapiens, UniProt Q16566); experiment: kinase activity against CAMKIV; type: biochemical
CAMKIV, sequence (Q16566 whole entry, species assumed): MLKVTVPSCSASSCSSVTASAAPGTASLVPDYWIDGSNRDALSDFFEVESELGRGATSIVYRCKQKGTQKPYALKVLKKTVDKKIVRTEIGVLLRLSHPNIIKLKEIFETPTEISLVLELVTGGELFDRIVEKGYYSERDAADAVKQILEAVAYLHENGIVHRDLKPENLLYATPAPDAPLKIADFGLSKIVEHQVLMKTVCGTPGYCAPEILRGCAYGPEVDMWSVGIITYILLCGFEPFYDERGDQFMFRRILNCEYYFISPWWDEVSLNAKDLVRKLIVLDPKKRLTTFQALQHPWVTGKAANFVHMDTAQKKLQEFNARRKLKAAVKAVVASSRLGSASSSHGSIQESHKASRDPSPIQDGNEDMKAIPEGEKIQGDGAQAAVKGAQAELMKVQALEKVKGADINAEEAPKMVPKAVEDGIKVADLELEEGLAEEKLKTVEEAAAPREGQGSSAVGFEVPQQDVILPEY

For `O=C(N/N=C/c1ccc(O)c(O)c1O)c1cc2ccccc2cc1O` [MRL THB], the IC50 ([1]; HCT116, 24 h) was over 50 µM, the IC50 ([1]; HCT116, 48 h) was 10 µM and the IC50 ([1]; HCT116, 72 h) was 7.5 µM. The IC50 ([1]; HCT116, 72 h, listed as THB) was 8 µM, the IC50 ([2]; KU7, 24 h) was 22 µM and the IC50 ([2]; KU7, 48 h) was 8 µM. The IC50 ([2]; KU7, 72 h) was 6 µM, the IC50 ([3]; 48 h) was 38 µM and the IC50 ([3]; 72 h) was 15 µM. For the same compound, the “G0/G1 (%)” value [4] was 17.2%, the “G2M (%)” value [4] was 19.7% and the “S (%)” value [4] was 28.1%. The “SubG0 Dead Cells (%)” value [4] was 29.0%, the “G0/G1 (%)” value [5] was 39.5% and the “G2M (%)” value [5] was 26.8%. For the same compound, the “S (%)” value [5] was 21.8%, the “SubG0 Dead Cells (%)” value [5] was 10.8% and the colony formation [6] was “significantly inhibited colony formation”. The colonosphere formation [7] was “significantly inhibited colonosphere formation”, the “anti-apoptotic protein Bcl2 and BclXL levels” value [8] was “inhibit” and the cytochrome c [8] was “inhibit”. For the same compound, the “COX-2 and VEGF expressions” value [9] was “inhibit”, the “cyclin D1 and c-Myc levels” value [9] was “inhibit” and the “phosphorylation of Akt” value [9] was “inhibit”. For the same compound, the “DCLK1, LGR5 and CD44 expression” value [10] was “significantly inhibited”, the Hes-1 expression [11] was “reduced expression” and the “Notch-1 and Jagged-1” value [11] was “downregulated”. For the same compound, the “expression of Presenilin, Nicastrin, APH1 and PEN2” value [12] was “downregulation”, the “expression of TEAD1, 2, and 4” value [13] was “significant downregulation” and the “phosphorylation of Mst1/2, Lats1/2 and YAP1” value [13] was “significantly downregulated”. For the same compound, the “DCLK1+ cells” value [14] was “significant decrease”, the DCLK1 kinase activity [15] was “significantly reduced” and the “fold less activity against CAMKIV than DCLK1” value [16] was 100 fold.
